“Also recorded” adds a separate entry of the source. Like-named read-outs stand apart in the source and are kept apart here.
Experiments:
[1] = tested on: CYP1A1 expression in sebaceous glands; experiment: Focal expression of AhR activation (CYP1A1 immunohistochemistry) in sebaceous gland cell types of topically treated mouse ears
Excerpt: The embodiment described here entails treating the ears of C57BL/6 mice via the topical route, following established protocols to determine dose-response and time-response relationships, with sebum reducing AhR pathway agonists previously characterized for their in vivo activation of the receptor, using, for example the EROD and CALUX methods which are widely used in this field (see Table 1).
Following topical treatment, the ears are sampled, and CYP1A1 expression is examined by immunohistochemical analysis using a specific antibody.
The study diagrammed in FIG. 1 and for which photomicrographs are provided in FIG. 2 entailed treating mice daily for one week with a topical AhR pathway agonist, with ears taken for examination at Day 7. Ears were recovered and fixed in formalin, paraffin embedded and then sections were prepared and positioned on slides for immunohistochemical staining. The specific antibody used in this instance was rabbit anti-rat CYP1A1 polyclonal antibody (Millipore AB1247). The AhR pathway agonists used in the example in FIG. 2 were as follows: • 1B) 6-formylindolo[3,2-b]carbozole (NSA4/FICZ); • 2B) 8,13-Dihydroindolo[2′,3′:3,4]pyrido[2,1-b]quinazolin-5(7H)-one (NSA1/rutecarpine); • 3B) 3-phenyl-1H-benzo[f]chromen-1-one (NSA2); • 4B)_2,3,7,8-tetrachlorodibenzo-p-dioxin (NSA3/TCDD).
In addition to the particular topography of the isthmus region, these cells are characterized by the expression of L-RIG1, a marker of isthmic multi-potent clonogenic cells (Jensen et al. (2009),).

sebaceous glands = experiment: Dose effect in mice: sebosuppressive effect and tolerability of topical treatment of the ears; type: in vivo
Procedure: For these dose-effects tests, C57BL/6 mice were treated for three to five weeks, five days per week on the ears and in three concentrations, namely 0.1, 0.5, and 1% of NSA-2. The sebosuppressive effect was analyzed at the third week although expression thereof starts after one week.
Drug tolerability, in the absence of MADISH-type cyst production, was assessed after five weeks' treatment.

[2] = tested on: FADS2, AWAT1, ELOVL3 mRNA; experiment: Real-Time QRT-PCR of mRNA of sebogenic enzymes in ears of mice treated for five weeks; type: in vivo, C57BL/6 mice; settings: mouse ears, 0.5% in acetone (TCDD 0.0005%), vs vehicle
Excerpt: At the end of that time the animals were sacrificed and the ears removed for further analysis.

sebum = experiment: Sebosuppressive activity on human skin (sebumetric casual level, sebutape, clinical observation); type: in vivo, man; settings: for Sebosuppressive activity in man (reduction in sebum): NSA-1, NSA-2, NSA-8, NSA-9 tested at 0.5%
Procedure: The sebum inhibition index is calculated by counting the number of mature and differentiated cells in relation to the total number of cells in the sebaceous glands. A decrease in mature and differentiated cells indicates blocking of sebogenesis. The effect on human skin is determined by sebumetric examination using what is known as the “casual level” (Dobrev (2007)).

AhR (CYP1A1 induction) = molecular target: T1, AhR (CYP1A1 induction) (Homo sapiens, UniProt P35869); experiment: EROD (ethoxyresorufin-O-deethylase) assay, CYP1A1 induction as reporter of AhR activation in vitro; type: cell-based; settings: at 10 μM
T1 construct: endogenous in cells
T1 sequence (P35869 11-848): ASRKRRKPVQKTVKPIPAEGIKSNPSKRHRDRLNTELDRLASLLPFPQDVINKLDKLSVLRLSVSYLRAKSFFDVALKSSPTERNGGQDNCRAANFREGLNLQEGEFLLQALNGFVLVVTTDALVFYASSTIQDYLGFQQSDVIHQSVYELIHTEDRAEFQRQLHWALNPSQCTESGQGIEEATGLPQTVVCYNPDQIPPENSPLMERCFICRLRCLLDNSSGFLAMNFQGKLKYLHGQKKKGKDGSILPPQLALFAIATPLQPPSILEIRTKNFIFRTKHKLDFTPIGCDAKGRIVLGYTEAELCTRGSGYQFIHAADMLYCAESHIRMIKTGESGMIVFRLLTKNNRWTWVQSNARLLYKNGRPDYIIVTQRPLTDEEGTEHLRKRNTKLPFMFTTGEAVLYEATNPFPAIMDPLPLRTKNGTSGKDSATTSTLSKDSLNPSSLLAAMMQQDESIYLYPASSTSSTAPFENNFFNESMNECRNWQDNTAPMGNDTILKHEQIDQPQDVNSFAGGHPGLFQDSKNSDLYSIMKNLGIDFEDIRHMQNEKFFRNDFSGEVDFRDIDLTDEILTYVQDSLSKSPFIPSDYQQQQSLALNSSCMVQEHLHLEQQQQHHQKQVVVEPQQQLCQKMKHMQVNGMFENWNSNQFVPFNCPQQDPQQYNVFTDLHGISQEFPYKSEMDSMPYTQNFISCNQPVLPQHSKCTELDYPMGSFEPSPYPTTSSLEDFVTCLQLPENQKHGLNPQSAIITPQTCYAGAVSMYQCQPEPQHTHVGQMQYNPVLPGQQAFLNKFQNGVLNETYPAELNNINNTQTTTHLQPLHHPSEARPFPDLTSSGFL
Excerpt: As used herein, the term EROD refers to the ethoxyreorufin-O-deethylase (EROD) assay which monitors the induction of the xenobiotic-metabolizing enzyme cytochrome P-450 1A1(CYP1A1) and is a widely used as a reporter for measuring activation of the AhR in vitro (Zamaratskaia et al. (2009), Behnisch et al. (2001),)

[3] = Blood assay by HPLC in topically treated mice; type: in vivo, C57BL/6 mice; settings: 5 nM sensitivity
[4] = in rodents; Adedoyin et al. (1993); cited from earlier work
[5] = in vivo; cited from earlier work

Row | SMILES | Activation of the AhR pathway (CYP1A1 staining) in the sebaceous cell sub-populations, stage reached ([1]; mouse, in vivo) | Inhibition of mRNA expression encoding the three sebogenic enzymes (FADS2, AWAT1, ELOVL3) [2] | Sebosuppressive activity in man (reduction in sebum) (sebum) | also measured
1 | O=c1cc(-c2ccccc2)oc2ccc3ccccc3c12 [NSA 2, 3-phenyl-1H-benzo[f]chromen-1-one] | activate the AhR pathway in the four cell sub-populations within a period of less than one week | major inhibition | strongest sebosuppressive activity in man; also recorded: active in reducing sebum | Sebosuppressive effect in mice (active sebaceous glands, gland surface, ratios of sebocytes; FIGS. 5-8) (sebaceous glands; 0.1, 0.5 and 1%, ears, five days per week, analyzed at the third week): very marked effects; also recorded: a reduction in the differentiated compartment of the gland was observed; MADISH-type cystic lesions (sebaceous glands; after five weeks' treatment, any concentration tested): No cystic lesion were observed; Tolerability in mice (sebaceous glands; mouse, in vivo): good tolerability; AhR activation in the standard EROD assay, % of the level of induction seen with 0.01 μM TCDD (AhR (CYP1A1 induction)): 10-20%; Blood level by HPLC [3]: < 5 nM; half-life [4]: less than 45 mins
2 | O=c1cc(-c2ccccc2)oc2ccccc12 [NSA-9, 2-phenyl-4H-chromen-4-one] | – | no significant effect | neither 2-phenyl-4H-benzo[h]chromen-4-one nor 2-phenyl-4H-chromen-4-one exhibited any reduction in sebum | –
3 | O=Cc1c2c(cc3c1=Nc1ccccc1-3)=Nc1ccccc1-2 [NSA 4, 6-formylindolo[3,2-b]carbazole] | limited distribution in the sebaceous glands when compared with NSA-2 | – | – | –
4 | O=c1c2ccccc2nc2n1CCc1c-2[nH]c2ccccc12 [NSA 1, 8,13-Dihydroindolo[2′,3′:3,4]pyrido[2,1-b]quinazolin-5(7H)-one] | activates the AhR pathway in two of the cell sub-populations in mice | – | potentially useful sebosuppressive activity in man when tested at the same concentrations (0.5%), although weaker than that of NSA-2 | –
5 | O=c1cc(-c2ccccc2)oc2c1ccc1ccccc12 [NSA-8, 2-phenyl-4H-benzo[h]chromen-4-one] | – | slightly stimulating effect | neither 2-phenyl-4H-benzo[h]chromen-4-one nor 2-phenyl-4H-chromen-4-one exhibited any reduction in sebum | –
6 | Clc1cc2c(cc1Cl)Oc1cc(Cl)c(Cl)cc1O2 [NSA 3, 2,3,7,8-tetrachlorodibenzo-p-dioxin] | – | degree of specific gene suppression seen with NSA-2 is equivalent to that seen with the structurally unrelated compound NSA-3 | strongest sebosuppressive activity in man | Activation of the AhR pathway (CYP1A1 staining) in the sebaceous cell sub-populations, stage reached ([1]; mice, topical, first week of treatment): activate the AhR pathway in the four cell sub-populations within a period of less than one week; half-life [5]: measureable in years
7 | COc1ccc2nc([S@@+]([O-])Cc3ncc(C)c(OC)c3C)[nH]c2c1 [NSA 7, (S)-5-methoxy-2-[(4-methoxy-3,5-dimethylpyridin-2-yl)methylsulfinyl]-3H-benzoimidazole] | only activates the AhR receptor pathways in Stage One of the cell sub-populations | – | – | Sebosuppressive activity in man (sebum; tested at 8%): no sebosuppressive activity in man

Source: US9480674B2, “Method and composition for treating acne” (THESAN PHARMACEUTICALS, INC., priority 2012, dated 2016)
